Literature values, collected in patent US20210401968A1 (priority 2018, published 2021).
Read-outs that look alike come from different tables or passages of the source.

How the values were obtained:
[1] = molecular target: T1, progesterone receptor-based transactivator (Homo sapiens, UniProt P06401); conditions: rats
T1 construct: host or cells: rats (host animal of the cited study)
T1 sequence (P06401 640-891, added parts left off): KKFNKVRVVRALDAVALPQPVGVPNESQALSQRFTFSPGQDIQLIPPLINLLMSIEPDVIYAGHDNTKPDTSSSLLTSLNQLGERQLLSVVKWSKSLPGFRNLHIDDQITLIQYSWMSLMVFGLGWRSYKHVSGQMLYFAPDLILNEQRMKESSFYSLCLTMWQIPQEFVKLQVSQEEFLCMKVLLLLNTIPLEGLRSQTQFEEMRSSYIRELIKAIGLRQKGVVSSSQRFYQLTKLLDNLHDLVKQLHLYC

## CC#C[C@]1(O)CC[C@H]2[C@@H]3CCC4=CC(=O)CCC4=C3[C@@H](c3ccc(N(C)C)cc3)C[C@@]21C [mifepristone]
[1]; i.p.
  amount giving an effective concentration: 5 µg/kg
[1]; orally
  amount giving an effective concentration: about 10 μg/kg
Luciferase target gene
  duration of sustained target gene expression after a single heat treatment: at least 6 days
  target gene expression after heat treatment: resulted in activation of target gene expression
